In EP0609289B1, “IMIDAZOLE DERIVATIVES AND PHARMACEUTICAL COMPOSITIONS CONTAINING THE SAME” (THE UPJOHN COMPANY, priority 1991, dated 1993):

Tests used:
Angiotensin II receptor = experiment: In vitro angiotensin II mesenteric artery receptor binding assay (test 1); settings: rat mesenteric artery membrane fraction, 0.2 nM 125I-Ang II, 22°C, 90 minutes
Method in brief: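 Rat mesenteric artery membranes ([…] protein equivalent) incubated with 0.2 nM ^125I-Ang II and compound, 90 min at 22°C, pH 7.2 Tris buffer. Bound radioactivity counted after filtration; nonspecific binding defined with 1 µM unlabeled angiotensin II.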

[1] = test system: angiotensin II constriction in an isolated rabbit thoracic aorta; experiment: Antagonism to angiotensin II constriction in an isolated rabbit thoracic aorta (test 3); settings: test compound 10^-6 M for 20 minutes
Procedure: 3) Antagonism to angiotensin II constriction in an isolated rabbit thoracic aorta
A rectangular strip-like sample of thoracic aorta isolated from an anaesthetized rabbit was prepared, and the sample was suspended at 2.0 g of loaded tension in a Magnus tube filled with Krebs-Henseleitoid nutrition solution which was well aerated with 95% O2-5% CO2, and the constriction tension was measured using an isometric transducer. After the tension of the sample at rest became stable, accumulative administration of angiotensin II was carried out to obtain a concentration-action curve. Thereafter, the sample was washed with the same nutrition solution, then treated with test compound (10^-6 M) for 20 minutes to obtain again a concentration-action curve of angiotensin II. The results were obtained as followed: generated maximum tension at the first accumulative administration of angiotensin II was regarded as 100 %, and the 50 % effective concentration (ED50) was obtained in the presence or absence of the test compound, and pA2 value was calculated according to the following equations: • pA2=-logKB KB=C/{(A'/A)-1} • C; concentration of the test compound (M) • A'; ED50 in the presence of test compound (M) • A; ED50 in the absence of the test compound (M)

[2] = test system: blood pressure increase by angiotensin II; experiment: Antagonism to blood pressure increase by angiotensin II in a spine destroyed (pithed) rat (test 4); type: in vivo, Wistar rat; settings: intravenous administration, 3µg/kg angiotensin II, read-out: Inhibition of blood pressure increase by angiotensin II in pithed rat ED50(mg/kg) (test 4)
Description: 4) Antagonism to blood pressure increasing by angiotensin II in a spine destroyed rat
Wistar rat anaesthetized with pentobarbital was fixed at dorsal position, and a cannula for measuring blood pressure was inserted into sinister arteria carotis communis, and a cannula for administration of the test compound into dexter external jugular vein and a cannula for administration of angiotensin II into sinister external jugular vein, ambilateral nervus vagus was cut, and artificial respiration was carried out. A thin bar made of metal was stabbed into spinal column through sinister orbita to destroy spine. Blood pressure was recorded on polygraph via pressure transducer from an arterial cannula. After blood pressure was stable for more than 30 min., 3µg/kg of angiotensin II was administered intravenously four times every 15 min, and every 5 min. before the administration of angiotensin II from the second administration onward, a solvent, a lower dose of the test compound, and a higher dose of the test compound were administered intravenously in this order to observe the blood pressure increasing response by angiotensin II. ED50 values were calculated from the inhibiting rate when the first blood pressure increase by angiotensin II was regarded as 100 %.

[3] = test system: blood pressure increase by angiotensin II; experiment: Blood pressure increase by angiotensin II-inhibiting test, intraduodenal administration, anesthetized normotensive rat; type: in vivo
[4] = test system: hypertensive rat model (SHR); experiment: Oral administration test in hypertensive rat model (SHR); type: in vivo; settings: 10 mg/kg oral administration

**Q.** Which IC50 (Angiotensin II receptor) does the source give for `CCCc1nc2c(n1Cc1ccc(-c3ccccc3-c3nn[nH]n3)cc1)C(=O)N1N(C2)C2(C)CCC1(C)CC2` [Compound No. 450, 5,8-dimethyl-5,8-ethano-2-n-propyl-5,6,7,8-tetrahydro-1-[{2'-(1H-tetrazol-5-yl)biphenyl-4-yl}methyl)-1H,4H-1,3,4a,8a-tetraza-cyclopentanaphthalene-9-one] here?
**A.** 1.7 nM

**Q.** And the “Inhibition of rabbit aorta constriction pA2 (test 3)” value (“Inhibition” for short) [1]?
**A.** 9.92

**Q.** What about the ED50 [2] of the same molecule?
**A.** 0.32 mg/kg

**Q.** And the ED50 [3]?
**A.** 0.95 mg/kg

**Q.** What about the action lasting time ([3]; 3 mg/kg) of the same molecule?
**A.** not less than 5 hours

**Q.** With `CCCCc1nc2c(n1Cc1ccc(-c3ccccc3-c3nn[nH]n3)cc1)C(=O)N1N(C2)C2(C)CCC1(C)CC2` [Compound No. 451, 2-n-butyl-5,8-dimethyl-5,8-ethano-5,6,7,8-tetrahydro-1-[{2'-(1H-tetrazol-5-yl)biphenyl-4-yl}methyl]-1H,4H-1,3,4a,8a-tetraza-cyclopentanaphthalene-9-one] as the molecule, how does the IC50 (Angiotensin II receptor) read?
**A.** 1.9 nM

**Q.** And the “Inhibition” value [1]?
**A.** 10.04

**Q.** And the ED50 [2]?
**A.** 0.63 mg/kg

**Q.** And the ED50 [3]?
**A.** 0.84 mg/kg

**Q.** And the action lasting time ([3]; 1 mg/kg)?
**A.** not less than 5 hours

**Q.** What about the vasodepressor activity [4] of the same molecule?
**A.** significant vasodepressor activity over 24 hours

**Q.** How did the IC50 (Angiotensin II receptor) turn out when `CCCc1nc2c(n1Cc1ccc(-c3ccccc3-c3nnn[nH]3)cc1)C(=O)N1N(C2)C2(CC)CCC1(CC)CC2` [Compound No. 454, 5,8-diethyl-5,8-ethano-2-n-propyl-5,6,7,8-tetrahydro-1-[{2'-(1H-tetrazol-5-yl)biphenyl-4-yl}methyl]-1H,4H-1,3,4a,8a-tetraza-cyclopentanaphthalene-9-one] was run?
**A.** 3.5 nM

**Q.** And the “Inhibition” value [1]?
**A.** 10.34

**Q.** And the ED50 [2]?
**A.** 0.34 mg/kg

**Q.** And the ED50 [3]?
**A.** 1.28 mg/kg

**Q.** And the action lasting time ([3]; 3 mg/kg)?
**A.** not less than 5 hours

**Q.** Which IC50 (Angiotensin II receptor) does the source give for `CCCCc1nc2c(n1Cc1ccc(-c3ccccc3-c3nnn[nH]3)cc1)C(=O)N1N(C2)C2(CC)CCC1(CC)CC2` [Compound No. 455, 2-n-butyl-5,8-diethyl-5,8-ethano-5,6,7,8-tetrahydro-1-[{2'-(1H-tetrazol-5-yl)biphenyl-4-yl}methyl]-1H,4H-1,3,4a,8a-tetraza-cyclopentanaphthalene-9-one] here?
**A.** 3.3 nM

**Q.** And the “Inhibition” value [1]?
**A.** 8.82

**Q.** What about the ED50 [2] of the same molecule?
**A.** 0.64 mg/kg

**Q.** And the ED50 [3]?
**A.** 0.81 mg/kg

**Q.** And the action lasting time ([3]; 1 mg/kg)?
**A.** not less than 5 hours
